These results are taken from patent publication US11858956B2, “6-aza-nucleoside prodrugs as antiviral agents for treating virus infections” (Southern Research Institute, priority 2020, dated 2024).

As usually defined, the EC90 is the point of the concentration-response curve where the effect stands at 90%. As usually defined, the CC50 is the concentration giving 50% cytotoxicity.

Common to all, as to format: cell-based
For data set [1], the system named is VEEV. Nature of the data set: microbe, parasite or virus in culture. The note with it: Venezuelan equine encephalitis virus, NHDF.
The test system of data set [2] is DENV. Nature of the data set: Antiviral activity against DENV in HEK293 cells. Particulars: Dengue virus; for EC90: HEK293, read-out: DENV (HEK293 cells) EC90; for log reduction at 10 µM: HEK293, read-out: DENV (HEK293 cells) VTR (virus titer reduction).
Data set [3] concerns H3N2 strain. Nature of the data set: Antiviral activity against Influenza H3N2 strain in MDCK cells. The note with it: Influenza A virus; for EC90: 4-6 hours pre-incubation with compound; for log reduction at 20 µM: at 20 μM concentration, 4-6 hours pre-incubation, read-out: H3N2 strain (MDCK cells) VTR (virus titer reduction). The method, then: (§1) The antiviral activity against Influenza viruses (H1N1 and H3N2 strains) evaluated in MDCK cells (4-6 hours pre-incubation with compound) shown in Table 5 below. VTR=Virus titer reduction in log at 20 μM concentration. NT: not tested, ND: not determined.

A short description of data set [4]: Cytotoxicity (CC50) in MDCK cells. The note with it: dog, H1N1. The method, then: (§2) As used herein, “CC50” is intended to refer to the concentration of a substance (e.g., a compound or a drug) that is required for 50% reduction of cell viability. In one aspect, an CC50 can refer to the concentration of a substance that is required for 50% reduction (i.e., cytotoxicity) in vivo, as further defined elsewhere herein.
as §1

For data set [5], the system named is H1N1 strain. Nature of the data set: Antiviral activity against Influenza H1N1 strain in MDCK cells. Particulars: Influenza A virus; for EC90: 4-6 hours pre-incubation with compound; for log reduction at 20 µM: at 20 μM concentration, 4-6 hours pre-incubation, read-out: H1N1 strain (MDCK cells) VTR (virus titer reduction). The method, then: as §1
The nature of data set [6]: Cytotoxicity (CC50) in HEK293 cells. The note with it: human, WNV. Here is the method: as §2
The antiviral activity against Alpharviruses evaluated in HEK293 cells (4 hours pre-incubation with compound before infected with virus) is shown in Table 2 below. VTR=Virus titer reduction in log at 10 μM concentration. NT: not tested, ND: not determined

Data set [7] deals with ZIKA. The experiment in a line: Antiviral activity against ZIKA in HEK 293 cells. Particulars: Zika virus; for EC90: HEK293, read-out: ZIKA (HEK 293 cells) EC90; for log reduction at 10 µM: HEK293, read-out: ZIKA (HEK 293 cells) VTR (virus titer reduction).
Data set [8] relates to CHIKV. Nature of the data set: Antiviral activity against CHIKV in NHDF cells. Particulars: Chikungunya virus; for EC90: read-out: CHIKV (NHDF cells) EC90; for log reduction at 10 µM: read-out: CHIKV (NHDF cells) VTR (virus titer reduction).

For `CCC(CC)COC(=O)[C@H](C)NP(=O)(OC[C@H]1O[C@@H](n2ncc(N)nc2=O)C(O)C1O)Oc1ccccc1` (single isomer, unassigned) [Compound 17, 2-ethylbutyl ((((2r,9,4r,5r)-5-(5-amino-3-oxo-1,2,4-triazin-2(3H)-yl)-3,4-dihydroxytetrahydrofuran-2-yl)methoxy)-(phenoxy)phosphoryl)-L-alaninate], the EC90 was 5 µM in data set [1] (read-out: VEEV (NHDF cells) EC90) and more than 30 µM in data set [2]. The log reduction at 10 µM in data set [1] (read-out: VEEV (NHDF cells) VTR (virus titer reduction)) was found to be 1.

`CC(C)C(=O)OC[C@H]1O[C@@H](n2ncc(=O)[nH]c2=O)[C@H](O)[C@@H]1O` [Compound 14, ((2r,3s,4r,5r)-5-(3,5-dioxo-4,5-dihydro-1,2,4-triazin-2(3H)-yl)-3,4-dihydroxytetrahydrofuran-2-yl)-methyl isobutyrate]: the results for the concentration for an effect of 90% (EC90) in data set [3], in data set [5] and in data set [2] were 16.4 µM, 3.6 µM and 5 µM, respectively. In addition, the log reduction at 20 µM in data set [3] and in data set [5] was 3.3 in each case. Further, the values for the cytotoxic concentration (CC50) in data set [4] and in data set [6] were more than 20 µM and more than 40 µM, respectively. Moreover, the log reduction at 10 µM in data set [2] came out at 2.1.

On to `CCCC(=O)Nc1cnn([C@@H]2O[C@H](CO)[C@@H](O)[C@H]2O)c(=O)n1` [Compound 20, N-(2-((2R,3R,4S,5R)-3,4-dihydroxy-5-(hydroxymethyl)tetrahydro-furan-2-yl)-3-oxo-2,3-dihydro-1,2,4-triazin-5-yl)butyramide], for which the EC90 is 3.5 µM in data set [3]; 0.2 µM in data set [7]; 2.8 µM in data set [5]; 9 µM in data set [8]; 1.2 µM in data set [2]. For the same compound, the log reduction at 20 µM was found to be 2.7 in data set [3] and 2.9 in data set [5]. Further, the log reduction at 10 µM was 2.8 in data set [7], 1.5 in data set [8] and 3 in data set [2]. For the same compound, the CC50 in data set [4] was more than 20 µM; in data set [6], 22.9 µM.

`O=C(Nc1cnn([C@@H]2O[C@H](CO)[C@@H](O)[C@H]2O)c(=O)n1)C1CCC1` [Compound 22, N-(2-((2R,3R,4S,5R)-3,4-dihydroxy-5-(hydroxymethyl)-tetrahydrofuran-2-yl)-3-oxo-2,3-dihydro-1,2,4-triazin-5-yl)-cyclobutanecarboxamide]: the EC90 in data set [3] was 3.9 µM; in data set [7], 0.4 µM; in data set [5] it was 0.68 µM; in data set [8] it was 8 µM; in data set [2], 1 µM. Moreover, the results for the log reduction at 20 µM in data set [3] and in data set [5] were 3 and 2.9, respectively. In addition, the log reduction at 10 µM came to 2.6 in data set [7], 0.89 in data set [8] and 3.2 in data set [2]. The CC50 in data set [4] stood at 19 µM; in data set [6], 6.46 µM.

With `CCCCCOC(=O)Nc1cnn([C@@H]2O[C@H](CO)[C@@H](O)[C@H]2O)c(=O)n1` [Compound 24, pentyl (2-((2R,3R,4S,5R)-3,4-dihydroxy-5-(hydroxy-methyl)tetrahydrofuran-2-yl)-3-oxo-2,3-dihydro-1,2,4-triazin-5-yl)carbamate], the log reduction at 20 µM in data set [3] worked out at 1.6; in data set [5] it was 2.9. In addition, the figures for the 90% effect concentration (EC90) in data set [7], in data set [8] and in data set [2] were 0.3 µM, more than 10 µM and 1.2 µM, respectively. Besides, the log reduction at 10 µM is 3.1 in data set [7], 0 in data set [8] and 3.3 in data set [2]. The same compound gave a CC50 in data set [6] of 20.4 µM.
